According to patent USRE48461E1, “Modulation of androgen receptor expression” (Ionis Pharmaceuticals, Inc., priority 2012, dated 2021):

Tests used:
Format in all cases: cell-based, human
[1] = system: TMPRSS2 mRNA; experiment: Time-course TMPRSS2 expression in C4-2B cells
Procedure: C4-2B cells were plated at 1,000 cells per well in complete medium. […] ISIS 549148 was included as a negative control. […] After a treatment period of 8 hours, 24 hours, and 48 hours, AR expression was measured with primer probe set hAR-LTS00943. Results are presented in Tables 70-72 as percent expression of AR, relative to non-treated cells.
Expression analysis of prostate-specific antigen (PSA) and TMPRSS2 were also analyzed. Results are presented in Tables 73-75 as percent inhibition of PSA expression and Tables 76-78 as percent inhibition of TMPRSS2 expression, relative to non-treated cells.

[2] = system: AR mRNA; experiment: AR RNA expression in LNCaP cells (complete, CSS, CSS+DHT medium); details: for Percent expression of AR in LNCaP cells cultured in CSS + DHT medium: CSS + DHT (1 nM) medium; for Percent expression of AR in LNCaP cells cultured in CSS + DHT medium / Percent expression of AR in LNCaP cells cultured in CSS medium: 48 hrs; for Percent expression of AR in LNCaP cells cultured in complete medium: 48 hours
Procedure: Cells were plated at 1,000 cells per well. […] After an incubation period of 48 hours, RNA levels of AR, PSA and TMPRSS2 were measured.
(§1) Cells were plated at 2,000 cells per well and cultured in phenol red-free RPMI supplemented with 5% charcoal stripped serum (Gibco) media for 16 hours. […] After an incubation period of 4 hrs, DHT was added to the medium to a final concentration of 1 nM as indicated. RNAs were collected 48 hrs later and levels of AR, PSA and TMPRSS2 were measured.

[3] = system: TMPRSS2 mRNA; experiment: TMPRSS2 expression in LNCaP cells (complete, CSS+DHT medium); details: for Percent inhibition of TMPRSS2 expression in LNCaP cells cultured in CSS + DHT medium: CSS + DHT (1 nM) medium, 48 hrs; for Percent inhibition of TMPRSS2 expression in LNCaP cells cultured in complete medium: 48 hours
Procedure: Cells were plated at 1,000 cells per well. […] ISIS 549148 was included as a negative control. […] After an incubation period of 48 hours, RNA levels of AR, PSA and TMPRSS2 were measured.
as §1, with “hours. […] ISIS 549148 was included as a negative control.” for “hours.”, “measured. In the absence of DHT, AR expression in LNCaP cells was 95%, PSA expression was 7% and TMPRSS2 expression was 24% compared to the untreated control.” for “measured.”

[4] = system: LNCaP cells; experiment: LNCaP cell proliferation (complete or CSS+DHT medium); details: 5 days; for Proliferation (% untreated control) in LNCaP cells cultured in CSS + DHT medium: CSS + 1 nM DHT medium
Procedure: After a treatment period of 5 days in complete medium or CSS+1 nM DHT medium, the proliferative capacity of the cancer cells was measured with using CellTiter 96® AQueous One Solution or CellTiter-Glo® solution Cell Proliferation kit (Promega), following the manufacturer's instructions. […] Treatment with ISIS oligonucleotides in CSS+DHT medium reduced the proliferative capacity to a greater extent than treatment with MVD-3100. The proliferative capacity of cells cultured in CSS medium without DHT is 17% of untreated control levels.

[5] = system: PSA mRNA; experiment: PSA expression in C4-2 cells; details: 48 hrs; for Percent inhibition of PSA expression: C4-2 cells, CSS + DHT medium
Procedure: Cells were plated at 1,000 cells per well. […] After an incubation period of 48 hrs, RNA levels of AR, PSA and TMPRSS2 were measured.
Cells were plated at 2,000 cells per well and cultured in CSS media with 1 nM DHT. […] After an incubation period of 48 hrs, RNA levels of AR, PSA and TMPRSS2 were measured.

[6] = system: TMPRSS2 mRNA; experiment: TMPRSS2 expression in 22RV1 cells; details: RNAiMax, 48 hrs
Procedure: Cells were plated at 1,000 cells per well. […] After an incubation period of 48 hrs, RNA levels of full length AR, the V7 variant, PSA and TMPRSS2 were measured.
After an incubation period of 48 hrs, RNA levels of full length AR, the V7 variant, PSA and TMPRSS2 were measured.
Cells were plated at 2,000 cells per well and cultured in CSS media for 16 hours. […] After 4 hrs, 1 nM DHT was added. […] After an incubation period of 48 hrs, RNA levels of AR, AR V7 variant, PSA and TMPRSS2 were measured.

Sequence: GGCTACTACGCCGTCA (3-10-3 (S)-cEt gapmer, chemistry not fully specified) [ISIS 549148, reference compound]
- Percent inhibition of TMPRSS2 expression compared to the control group in 8 hours ([1]; 0.04 μM): 5%
- Percent inhibition of TMPRSS2 expression compared to the control group in 24 hours ([1]; 0.04 μM): 29%
- Percent inhibition of TMPRSS2 expression compared to the control group in 48 hours ([1]; 0.04 μM): 0%
- Percent inhibition of TMPRSS2 expression compared to the control group in 8 hours ([1]; 0.2 μM): 0%
- Percent inhibition of TMPRSS2 expression compared to the control group in 24 hours ([1]; 0.2 μM): 10%
- Percent inhibition of TMPRSS2 expression compared to the control group in 48 hours ([1]; 0.2 μM): 4%
- Percent inhibition of TMPRSS2 expression compared to the control group in 8 hours ([1]; 1 μM): 0%
- Percent inhibition of TMPRSS2 expression compared to the control group in 24 hours ([1]; 1 μM): 29%
- Percent inhibition of TMPRSS2 expression compared to the control group in 48 hours ([1]; 1 μM): 0%
- Percent inhibition of TMPRSS2 expression compared to the control group in 8 hours ([1]; 5.0 μM): 0%
- Percent inhibition of TMPRSS2 expression compared to the control group in 24 hours ([1]; 5.0 μM): 10%
- Percent inhibition of TMPRSS2 expression compared to the control group in 48 hours ([1]; 5.0 μM): 0%
- Percent expression of AR in LNCaP cells cultured in CSS + DHT medium ([2]; 0.04 μM): 98%
- Percent expression of AR in LNCaP cells cultured in CSS + DHT medium ([2]; 0.2 μM): 102%
- Percent expression of AR in LNCaP cells cultured in CSS + DHT medium ([2]; 1 μM): 96%
- Percent expression of AR in LNCaP cells cultured in CSS medium ([2]; 0.04 μM): 106%
- Percent expression of AR in LNCaP cells cultured in CSS medium ([2]; 0.2 μM): 97%
- Percent expression of AR in LNCaP cells cultured in CSS medium ([2]; 1 μM): 96%
- Percent expression of AR in LNCaP cells cultured in CSS medium ([2]; 5.0 μM): 104%
- Percent expression of AR in LNCaP cells cultured in complete medium ([2]; 0.04 μM): 102%
- Percent expression of AR in LNCaP cells cultured in complete medium ([2]; 1 μM): 109%
- Percent expression of AR in LNCaP cells cultured in complete medium ([2]; 5.0 μM): 109%
- Percent inhibition of TMPRSS2 expression in LNCaP cells cultured in CSS + DHT medium ([3]; 0.04 μM): 0%
- Percent inhibition of TMPRSS2 expression in LNCaP cells cultured in CSS + DHT medium ([3]; 0.2 μM): 0%
- Percent inhibition of TMPRSS2 expression in LNCaP cells cultured in CSS + DHT medium ([3]; 1 μM): 1%
- Percent inhibition of TMPRSS2 expression in LNCaP cells cultured in CSS + DHT medium ([3]; 5.0 μM): 10%
- Percent inhibition of TMPRSS2 expression in LNCaP cells cultured in complete medium ([3]; 0.04 μM): 0%
- Percent inhibition of TMPRSS2 expression in LNCaP cells cultured in complete medium ([3]; 0.2 μM): 0%
- Percent inhibition of TMPRSS2 expression in LNCaP cells cultured in complete medium ([3]; 1 μM): 0%
- Percent inhibition of TMPRSS2 expression in LNCaP cells cultured in complete medium ([3]; 5.0 μM): 0%
- Proliferation (% untreated control) in LNCaP cells cultured in CSS + DHT medium ([4]; 0.04 μM): 112 % untreated control
- Proliferation (% untreated control) in LNCaP cells cultured in CSS + DHT medium ([4]; 0.2 μM): 96 % untreated control
- Proliferation (% untreated control) in LNCaP cells cultured in CSS + DHT medium ([4]; 1 μM): 95 % untreated control
- Proliferation (% untreated control) in LNCaP cells cultured in CSS + DHT medium ([4]; 5.0 μM): 89 % untreated control
- Proliferation (% untreated control) in LNCaP cells cultured in complete medium ([4]; 0.04 μM): 101 % untreated control
- Proliferation (% untreated control) in LNCaP cells cultured in complete medium ([4]; 0.2 μM): 95 % untreated control
- Proliferation (% untreated control) in LNCaP cells cultured in complete medium ([4]; 1 μM): 94 % untreated control
- Proliferation (% untreated control) in LNCaP cells cultured in complete medium ([4]; 5.0 μM): 110 % untreated control
- Percent inhibition of PSA expression ([5]; 0.04 μM): 0%
- Percent inhibition of PSA expression ([5]; 0.2 μM): 8%
- Percent inhibition of PSA expression ([5]; 1 μM): 21%
- Percent inhibition of PSA expression ([5]; 5.0 μM): 22%
- Percent inhibition of PSA expression in C4-2 cells cultured in complete medium ([5]; 0.04 μM): 15%
- Percent inhibition of PSA expression in C4-2 cells cultured in complete medium ([5]; 0.2 μM): 24%
- Percent inhibition of PSA expression in C4-2 cells cultured in complete medium ([5]; 1 μM): 24%
- Percent inhibition of PSA expression in C4-2 cells cultured in complete medium ([5]; 5.0 μM): 23%
- Percent inhibition of TMPRSS2 expression ([6]; CSS + DHT medium, 1.34 nM): 0%
- Percent inhibition of TMPRSS2 expression ([6]; CSS + DHT medium, 4.0 nM): 3%
- Percent inhibition of TMPRSS2 expression ([6]; CSS + DHT medium, 13.4 nM): 1%
- Percent inhibition of TMPRSS2 expression ([6]; complete medium, 1.34 nM): 15%
- Percent inhibition of TMPRSS2 expression ([6]; complete medium, 4.0 nM): 9%
- Percent inhibition of TMPRSS2 expression ([6]; complete medium, 13.4 nM): 14%
- Percent inhibition of TMPRSS2 expression ([6]; complete medium, 40 nM): 4%
